Laboratory results: ChEMBL document CHEMBL1159160, “L-162,389: a potent orally active angiotensin II receptor antagonist with balanced affinity to both AT1 and AT2 receptor subtypes” (Bioorg Med Chem Lett, 1996)

Columns and labels:
[1] = target: T1, Type-2 angiotensin II receptor (Rattus norvegicus, UniProt P35351); test: Compound was evaluated for inhibition of 125I[Sar1,Ile8] aII binding to rat midbrain membrane preparation Angiotensin II receptor, type 2; type: tissue-based
T1 sequence (P35351 whole entry): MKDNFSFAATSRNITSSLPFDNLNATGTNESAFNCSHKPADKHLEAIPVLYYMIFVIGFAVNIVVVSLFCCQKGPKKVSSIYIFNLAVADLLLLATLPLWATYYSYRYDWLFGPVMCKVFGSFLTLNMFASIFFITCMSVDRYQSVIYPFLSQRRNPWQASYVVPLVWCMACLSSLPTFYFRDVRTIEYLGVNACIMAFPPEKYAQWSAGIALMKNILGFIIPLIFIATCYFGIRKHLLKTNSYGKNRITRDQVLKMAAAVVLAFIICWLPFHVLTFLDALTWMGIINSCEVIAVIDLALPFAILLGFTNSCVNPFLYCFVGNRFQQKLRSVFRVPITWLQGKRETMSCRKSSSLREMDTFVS

[2] = target: T2, Type-1 angiotensin II receptor (Oryctolagus cuniculus, UniProt P34976); test: Compound was evaluated for inhibition of 125I[Sar1,Ile8] all binding to rabbit aorta Angiotensin II receptor, type 1; type: tissue-based
T2 sequence (P34976 whole entry): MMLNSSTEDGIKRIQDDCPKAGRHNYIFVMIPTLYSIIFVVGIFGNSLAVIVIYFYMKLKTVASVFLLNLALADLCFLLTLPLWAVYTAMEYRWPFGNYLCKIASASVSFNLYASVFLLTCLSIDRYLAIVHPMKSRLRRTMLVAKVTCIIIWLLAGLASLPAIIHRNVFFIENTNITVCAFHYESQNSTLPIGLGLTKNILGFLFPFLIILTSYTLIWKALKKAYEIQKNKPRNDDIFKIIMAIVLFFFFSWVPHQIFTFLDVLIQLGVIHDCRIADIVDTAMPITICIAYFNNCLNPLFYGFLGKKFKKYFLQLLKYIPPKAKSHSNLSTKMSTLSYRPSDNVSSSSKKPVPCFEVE

Structure (SMILES)	IC50 [1]	IC50 [2]
CCCCOC(=O)NS(=O)(=O)c1ccccc1-c1ccc(Cn2c(CC)nc3c(C)cc(C)nc32)cc1	95 nM	0.2 nM
CCCCOC(=O)NS(=O)(=O)c1ccc(C)cc1-c1ccc(Cn2c(CC)nc3c(C)cc(C)nc32)cc1	87 nM	0.2 nM
CCCCOC(=O)NS(=O)(=O)c1ccc(CC)cc1-c1ccc(Cn2c(CC)nc3c(C)cc(C)nc32)cc1	37 nM	1.4 nM
CCCCOC(=O)NS(=O)(=O)c1ccc(CCC)cc1-c1ccc(Cn2c(CC)nc3c(C)cc(C)nc32)cc1	3.8 nM	2.1 nM
